The source of these data is patent publication US20230265116A1, “DEGRADATION OF (EGFR) BY CONJUGATION OF EGFR INHIBITORS WITH E3 LIGASE LIGAND AND METHODS OF USE” (BEIGENE, LTD., priority 2020, published 2023).

In test [1] the test system is EGFR Del19/T790M/C797S (BaF3-DTC cells). Briefly: EGFR degradation HTRF assay, BaF3-DTC cells. It is filed as cell-based. As to conditions: 16h treatment; for DTC Dmax (%): maximum percentage of degradation; for DC50: read-out: DTC DC50. The procedure: BaF3 WT(wild type), BaF3-LTC(L858R/T790M/C797S) and BaF3-DTC(Del19/T790M/C797S) cells are treated with compounds diluted in 0.2% DMSO cell culture medium and incubate for 16h, 37° C., 5% CO2, H1975-#36, H1975-#28, H1975-#23 and HCC827 cells are treated with compounds diluted in 0.2% DMSO cell culture medium on day 2, incubate for 16h, 37° C., 5% CO2.the final concentriation of compounds in all assay is start with 10 uM, 5-fold dilution, total 8 doses were included.
After 16h treatment, add HTRF lysis buffer to each well; seal the plate and incubate 1 hour at room temperature on a plate shaker; Once the cells are lysed, 16 μL of cell lysate are transferred to a PE 384-well HTRF detection plate; 4 μL of pre-mixed HTRF antibodies are added to each well; Cover the plate with a plate sealer, spin 1000 rpm for 1 min, Incubate overnight at room temperature; Read on BMG PheraStar with HTRF protocol (337 nm-665 nm-620 nm).
The inhibition (degradation) percentage of the compound was calculated by the following equation: Inhibition percentage of Compound=100-100×(Signal-low control)/(High control-low control), wherein signal=each test compound group
High control=Cell group with added DMSO and without compound, indicating microplate readings without EGFR degradation;
Dmax is the maximum percentage of inhibition (degradation).
The IC50 (DC50) value of a compound can be obtained by fitting the following equation
Y=Bottom+(TOP−Bottom)/(1+((IC50/X)^hillslope))
Wherein, X and Y are known values, and IC50, Hillslope, Top and Bottom are the parameters obtained by fitting with software. Y is the inhibition percentage (calculated from the equation), X is the concentration of the compound; IC50 is the concentration of the compound when the 50% inhibition is reached. The smaller the IC50 value is, the stronger the inhibitory ability of the compound is. Vice versa, the higher the IC50 value is, the weaker the inhibitory ability of the compound is; Hillslope represents the slope of the fitted curve, generally around 1*; Bottom represents the minimum value of the curve obtained by data fitting, which is generally 0%±20%; Top represents the maximum value of the curve obtained by data fitting, which is generally 100%±20%. The experimental data were fitted by calculating and analyzing with Dotmatics data analysis software.
(TR-FRET usually uses a lanthanide donor and a delayed reading to cut background.)

Test [2] deals with T1, EGFR L858R/T790M/C797S (BaF3-LTC cells) (Homo sapiens, UniProt P00533, C797S/L858R/T790M).
T1 construct: expressed in transfected cells; host or cells: BaF3
Briefly: EGFR degradation HTRF assay, BaF3-LTC cells. It is filed as cell-based. The conditions noted are these: BaF3-LTC, 16h treatment; for Dmax: maximum percentage of degradation, read-out: LTC Dmax (%); for DC50: read-out: LTC DC50. The gist of the method: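 Cells treated 16 h at 37 °C, 5% CO2 in medium with 0.2% DMSO; top final concentration 10 uM, 5-fold dilution, 8 doses. Lysates read by HTRF (665/620 nm); degradation % versus DMSO high control, DC50 from four-parameter fit, Dmax as maximal degradation.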

T1 sequence (P00533 25-1210 T790M/C797S/L858R): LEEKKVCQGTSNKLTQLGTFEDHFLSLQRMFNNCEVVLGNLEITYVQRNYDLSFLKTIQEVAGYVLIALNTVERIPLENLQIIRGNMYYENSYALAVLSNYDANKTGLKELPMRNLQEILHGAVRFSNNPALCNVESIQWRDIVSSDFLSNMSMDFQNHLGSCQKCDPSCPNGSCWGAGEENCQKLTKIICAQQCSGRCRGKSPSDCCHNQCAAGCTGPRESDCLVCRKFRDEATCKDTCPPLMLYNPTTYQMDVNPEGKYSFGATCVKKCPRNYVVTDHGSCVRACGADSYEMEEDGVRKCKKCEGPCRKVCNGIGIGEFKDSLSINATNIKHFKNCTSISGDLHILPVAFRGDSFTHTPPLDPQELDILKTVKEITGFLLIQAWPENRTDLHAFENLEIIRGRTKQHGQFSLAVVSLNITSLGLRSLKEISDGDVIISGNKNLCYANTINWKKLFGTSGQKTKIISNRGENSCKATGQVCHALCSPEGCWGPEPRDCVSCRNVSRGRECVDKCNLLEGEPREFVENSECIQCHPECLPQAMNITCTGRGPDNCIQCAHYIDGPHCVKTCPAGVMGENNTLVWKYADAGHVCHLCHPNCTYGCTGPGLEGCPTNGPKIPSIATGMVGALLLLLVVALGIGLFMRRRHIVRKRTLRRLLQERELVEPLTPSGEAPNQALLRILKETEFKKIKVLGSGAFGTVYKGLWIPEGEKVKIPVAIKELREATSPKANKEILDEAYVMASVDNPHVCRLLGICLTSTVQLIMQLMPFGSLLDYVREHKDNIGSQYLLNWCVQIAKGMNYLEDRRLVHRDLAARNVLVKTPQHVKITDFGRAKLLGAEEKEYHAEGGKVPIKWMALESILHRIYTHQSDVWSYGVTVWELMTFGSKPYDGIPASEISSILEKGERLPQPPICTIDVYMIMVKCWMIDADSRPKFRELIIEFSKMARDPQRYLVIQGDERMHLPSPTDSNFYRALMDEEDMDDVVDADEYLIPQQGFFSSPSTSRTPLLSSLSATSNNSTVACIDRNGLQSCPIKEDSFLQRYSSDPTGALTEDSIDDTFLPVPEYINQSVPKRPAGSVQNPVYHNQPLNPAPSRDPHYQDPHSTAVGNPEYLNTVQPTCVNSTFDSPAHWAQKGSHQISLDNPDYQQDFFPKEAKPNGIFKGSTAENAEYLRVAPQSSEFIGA

One may read the DC50 as the midpoint of the concentration-degradation curve. Usually Dmax stands for the greatest extent of degradation seen. For the compound `CCc1cc(Nc2ncc(Br)c(Nc3ccc4c(=O)n(C)ccc4c3P(C)(C)=O)n2)c(OC)cc1N1CCC(N2CCN(CCc3cccc4c3n(C)c(=O)n4C3CCC(=O)NC3=O)CC2)CC1` (centres unmarked) [Example 705, 3-(4-(2-(4-(1-(4-((5-bromo-4-((5-(dimethylphosphoryl)-2-methyl-1-oxo-1,2-dihydroisoquinolin-6-yl)amino)pyrimidin-2-yl)amino)-2-ethyl-5-methoxyphenyl)piperidin-4-yl)piperazin-1-yl)ethyl)-3-methyl-2-oxo-2,3-dihydro-1H-benzo[d]imidazol-1-yl)piperidine-2,6-dione], in test [1], the “DTC Dmax (%)” value is on record as 88.58% and the DC50 is 1.53 nM. Moreover, in test [2], the Dmax was determined as 95.3% and the DC50 is 4.56 nM.

As for `CCc1cc(Nc2ncc(Br)c(Nc3ccc4nc(C)ccc4c3P(C)(C)=O)n2)c(OC)cc1N1CCC(N2CCN(C(=O)[C@H]3C[C@H](Nc4cc(F)c(C5CCC(=O)NC5=O)c(F)c4)C3)CC2)CC1` (some centres unmarked) [Example 209, 3-(4-(((1r,3r)-3-(4-(1-(4-((5-bromo-4-((5-(dimethylphosphoryl)-2-methylquinolin-6-yl)amino)pyrimidin-2-yl)amino)-2-ethyl-5-methoxyphenyl)piperidin-4-yl)piperazine-1-carbonyl)cyclobutyl)amino)-2,6-difluorophenyl)piperidine-2,6-dione], in test [1], the “DTC Dmax (%)” value is on record as 96.2% and the DC50 turned out to be 2.1 nM. In addition, in test [2], the Dmax is 95.5% and the DC50 worked out at 3.92 nM.

`CCc1cc(Nc2ncc(Br)c(Nc3ccc4nc(C)ccc4c3P(C)(C)=O)n2)c(OC)cc1N1CCC(N2CCN(C(=O)C34CCC(Nc5cc(F)c(C6CCC(=O)NC6=O)c(F)c5)(CC3)C4)CC2)CC1` (centres unmarked) [Example 699, 3-(4-((4-(4-(1-(4-((5-bromo-4-((5-(dimethylphosphoryl)-2-methylquinolin-6-yl)amino)pyrimidin-2-yl)amino)-2-ethyl-5-methoxyphenyl)piperidin-4-yl)piperazine-1-carbonyl)bicyclo[2.2.1]heptan-1-yl)amino)-2,6-difluorophenyl)piperidine-2,6-dione]: in test [1], the “DTC Dmax (%)” value was 85.08% and the DC50 worked out at 3.04 nM. For the same compound, in test [2], the Dmax is 89.2% and the DC50 worked out at 6.06 nM.

Take `CCc1cc(Nc2ncc(Br)c(Nc3ccc4nc(C(C)C)ccc4c3P(C)(C)=O)n2)c(OC)cc1N1CCC(N2CCN(CCc3cc(F)c(C4CCC(=O)NC4=O)c(F)c3)CC2)CC1` (centres unmarked) [Example 316, 3-(4-(2-(4-(1-(4-((5-bromo-4-((5-(dimethylphosphoryl)-2-isopropylquinolin-6-yl)amino)pyrimidin-2-yl)amino)-2-ethyl-5-methoxyphenyl)piperidin-4-yl)piperazin-1-yl)ethyl)-2,6-difluorophenyl)piperidine-2,6-dione]: in test [1], the “DTC Dmax (%)” value stood at 89.57% and the DC50 worked out at 9.59 nM. In addition, in test [2], the Dmax was 79% and the DC50 was 48.7 nM.

`CCc1cc(Nc2ncc(Br)c(Nc3ccc4nc(C)ccc4c3P(C)(C)=O)n2)c(OC)cc1N1CCC(N2CCN(CCc3cc(F)c(C4CCC(=O)NC4=O)c(F)c3)C[C@@H]2C)CC1` (stereo partly drawn) [Example 715, 3-(4-(2-((S)-4-(1-(4-((5-bromo-4-((5-(dimethylphosphoryl)-2-methylquinolin-6-yl)amino)pyrimidin-2-yl)amino)-2-ethyl-5-methoxyphenyl)piperidin-4-yl)-3-methylpiperazin-1-yl)ethyl)-2,6-difluorophenyl)piperidine-2,6-dione]: in test [1], the “DTC Dmax (%)” value was determined as 92.57% and the DC50 is 4.3 nM. Further, in test [2], the Dmax came out at 89.8% and the DC50 was determined as 7.08 nM.

As to `CCc1cc(Nc2ncc(Br)c(Nc3ccc4nc(C(F)(F)F)ccc4c3P(C)(C)=O)n2)c(OC)cc1N1CCC(N2CCN(C(=O)C3CN(c4ccc5c(c4)CN(C4CCC(=O)NC4=O)C5=O)C3)CC2)CC1` (centres unmarked) [Example 434, 3-(5-(3-(4-(1-(4-((5-bromo-4-((5-(dimethylphosphoryl)-2-(trifluoromethyl)quinolin-6-yl)amino)pyrimidin-2-yl)amino)-2-ethyl-5-methoxyphenyl)piperidin-4-yl)piperazine-1-carbonyl)azetidin-1-yl)-1-oxoisoindolin-2-yl)piperidine-2,6-dione], in test [1], the “DTC Dmax (%)” value is on record as 85.05% and the DC50 stood at 4.43 nM. In test [2], the Dmax came out at 88.2% and the DC50 was determined as 9.32 nM.

In the case of `CCc1cc(Nc2ncc(Br)c(Nc3ccc4nccnc4c3P(C)(C)=O)n2)c(OC)cc1N1CCC(N2CCN(CC3CN(c4ccc5c(c4)C(=O)N(C4CCC(=O)NC4=O)C5)C3)CC2)CC1` (centres unmarked) [Example 239, 3-(6-(3-((4-(1-(4-((5-bromo-4-((5-(dimethylphosphoryl)quinoxalin-6-yl)amino)pyrimidin-2-yl)amino)-2-ethyl-5-methoxyphenyl)piperidin-4-yl)piperazin-1-yl)methyl)azetidin-1-yl)-1-oxoisoindolin-2-yl)piperidine-2,6-dione], in test [1], the “DTC Dmax (%)” value was 88.8% and the DC50 is 3.34 nM. Also, in test [2], the Dmax was determined as 87% and the 50% degradation concentration (DC50) was 12.3 nM.

For `COc1cc(N2CCC(N3CCN(CCc4ccc(C5CCC(=O)NC5=O)c(F)c4)CC3)CC2)ccc1Nc1ncc(Br)c(Nc2ccc3nccnc3c2P(C)(C)=O)n1` (centres unmarked) [Example 212, 3-(4-(2-(4-(1-(4-((5-bromo-4-((5-(dimethylphosphoryl)quinoxalin-6-yl)amino)pyrimidin-2-yl)amino)-3-methoxyphenyl)piperidin-4-yl)piperazin-1-yl)ethyl)-2-fluorophenyl)piperidine-2,6-dione], in test [1], the “DTC Dmax (%)” value is listed as 94.28% and the DC50 was 16.6 nM. For the same compound, in test [2], the Dmax was determined as 78.8% and the DC50 is 81.2 nM.

For the compound `CCc1cc(Nc2ncc(Br)c(Nc3ccc4nccnc4c3P(C)(C)=O)n2)c(OC)cc1N1CCC(N2CCN(C[C@H]3C[C@H](N(C)c4cccc(C5CCC(=O)NC5=O)c4)C3)CC2)CC1` (some centres unmarked) [Example 307, 3-(3-(((1r,3r)-3-((4-(1-(4-((5-bromo-4-((5-(dimethylphosphoryl)quinoxalin-6-yl)amino)pyrimidin-2-yl)amino)-2-ethyl-5-methoxyphenyl)piperidin-4-yl)piperazin-1-yl)methyl)cyclobutyl)(methyl)amino)phenyl)piperidine-2,6-dione], in test [1], the “DTC Dmax (%)” value came to 73.68% and the DC50 was found to be 43.3 nM. In addition, in test [2], the Dmax is 87.4% and the DC50 came out at 77.1 nM.

As to `CCc1cc(Nc2ncc(Br)c(Nc3ccc4nc(C)ccc4c3P(C)(C)=O)n2)c(OC)cc1N1CCC(N2CCN(CCc3ccc4c(c3)N(C3CCC(=O)NC3=O)C(=O)C4(C)C)CC2)CC1` (centres unmarked) [Example 413, 3-(6-(2-(4-(1-(4-((5-bromo-4-((5-(dimethylphosphoryl)-2-methylquinolin-6-yl)amino)pyrimidin-2-yl)amino)-2-ethyl-5-methoxyphenyl)piperidin-4-yl)piperazin-1-yl)ethyl)-3,3-dimethyl-2-oxoindolin-1-yl)piperidine-2,6-dione], in test [1], the “DTC Dmax (%)” value came to 95.66% and the half-maximal degradation concentration (DC50) was determined as 1.91 nM. In test [2], the Dmax turned out to be 93.2% and the DC50 turned out to be 6.11 nM.

With `CCc1cc(Nc2ncc(Br)c(Nc3ccc4nccnc4c3P(C)(C)=O)n2)c(OC)cc1N1CCC(N2CCN(CC3CN(c4cc(F)c(C5CCC(=O)NC5=O)c(F)c4)C3)CC2)CC1` (centres unmarked) [Example 253, 3-(4-(3-((4-(1-(4-((5-bromo-4-((5-(dimethylphosphoryl)quinoxalin-6-yl)amino)pyrimidin-2-yl)amino)-2-ethyl-5-methoxyphenyl)piperidin-4-yl)piperazin-1-yl)methyl)azetidin-1-yl)-2,6-difluorophenyl)piperidine-2,6-dione], in test [1], the “DTC Dmax (%)” value is recorded as 94.79% and the DC50 amounted to 7.09 nM. Besides, in test [2], the Dmax turned out to be 86.3% and the DC50 was determined as 19.8 nM.
